Results reported in patent US9683009B2, “Bone-selective osteogenic oxysterol-bone targeting agents” (The Regents of the University of California, priority 2013, dated 2017).

Tests used:
[1] = in vitro hydroxyapatite (HAP) binding assay; settings: for % Binding to Hydroxyapatite: 20 μM analyte, HAP 50 mg/mL, 50 mM Tris-HCl pH 7.5, 20% DMSO, 10 minutes; for binding to HAP (in words): in vitro, estradiol at 20 μM
Method: An in vitro HAP binding assay was conducted as follows. A 1 mM solution of each analyte was made in 100% dimethylsulfoxide (DMSO). A further dilution was then made to form a 20 μM solution of each analyte in 50 mM Tris-HCl Buffer at pH 7.5 with 20% DMSO. […] The HAP concentration used was 50 mg/mL.
For each analyte, samples were prepared in triplicate. The control samples (1 mL of 20 μM analyte) were transferred into a microcentrifuge tube. To a second set of samples (1 mL of 20 μM analyte) in a microcentrifuge tube was added 50 mg of HAP. The samples were vortexed, gently mixed with inversion for 10 minutes at room temperature, and then centrifuged at 4,400 rpm for 2 minutes to sediment the HAP contained in the samples. The supernatant was transferred to another set of microcentrifuge tubes.
An electronic spectral scan (ultraviolet-visible) from 220-520 nm was obtained for each analyte using a Bio-Rad Smart-Spec 3000. The blank was 50 mM Tris-HCl Buffer, pH 7.5, 20% DMSO. The wavelength of maximum absorbance (λmax) was determined, and the extinction coefficient (ε) was calculated using the Beer-Lambert Law.
The absorbance of the samples incubated with HAP was measured at λmax and the molar concentration of the analyte was then determined using the Beer-Lambert Law and the previously calculated ε. The concentration of the analytes 17β-estradiol, Oxy149, Oxy153, and Oxy155 without and with contact with HAP is shown in FIG. 10.
The fraction of analyte absorbed to HAP for each sample was subsequently calculated using the following formula for % binding, (Ho−H)/Ho*100=% binding with Ho being the mean concentration of control samples and H being the mean calculated concentration of samples treated with HAP.

C3H10T1/2 cells = assay: alkaline phosphatase activity in C3H10T1/2 cells after 4 days of treatment; assay type: cell-based; settings: 1 μM
Method: [drawing 19] (In Oxy133 the 6-hydroxyl group is more reactive toward succinic anhydride than the 3-hydroxyl.) The resulting conjugate, OXY149, retains most of the osteogenic activity of the parent Oxy133 in C3H10T1/2 cells determined by the level of induction of osteogenic differentiation marker, alkaline phosphatase activity after 4 days of treatment (Control: 2±1; Oxy133 (1 μM): 390±10; Oxy149 (1 μM): 100±12; Oxy149 (5 μM): 500±18; Oxy149 (10 μM); 480±12; Oxy149 (20 μM): 470±25). BTA-linker 1 can be attached via the 3- and/or 6-positions of OXY133 using tunable linker attachments.

[2] = tested on: M2-10B4 bone marrow stromal cells; assay: osteogenic differentiation / ALP enzymatic activity in M2-10B4 bone marrow stromal cells; assay type: cell-based; settings: M2-10B4 cells; for ALP Activity: ± SD; for EC50: read-out: EC50 based on activation of ALP
Method: Osteogenic differentiation was assessed by the induction of alkaline phosphatase (ALP) enzymatic activity, as well as induced expression of osteogenic differentiation marker genes ALP, bone sialoprotein (BSP), and osterix (OSX).

[3] = half-life in human liver microsomes; assay type: in vitro ADME; settings: read-out: half-life in human liver microsomes (HLM)
Description: Naturally-occurring oxysterols, 20(S)-hydroxycholesterol, 22(S)-hydroxycholesterol and 22(R)-hydroxycholesterol can be used as potential osteogenic agents (Kha; Richardson; Amantea). A series of potent osteogenic oxysterol analogues was identified, which are efficacious both in vitro and in vivo. Members of this family of semi-synthetic oxysterols induce robust bone formation and spine fusion in rats when applied locally between transverse processes via a collagen sponge (T. S. Johnson). The compound OXY133 is an analog in the series with enhanced osteogenic activity (FIG. 1) (Montgomery). Oxy133 can induce osteogenesis in cultured human primary mesenchymal stem cells and induce spine fusion in rats in an accelerated manner compared to other analogues. Oxy133 can induce robust osteogenesis in non-rodent models of bone disease such as rabbit spine fusion and rabbit calvarial defect models. Oxy133 is a drug development candidate for local administration with potential application in spine fusion and repair of non-union fractures. […] Furthermore, due to the possible mechanism of osteogenesis, a transient activation of the Hh-pathway in MSCs, increasing selectivity for bone tissue while minimizing the exposure to other tissues may be prudent. This can be accomplished by linking a bone targeting agent (BTA) to the oxysterol molecule that selectively delivers it to bone.

Hedgehog (Hh) signaling = assay: Hedgehog signaling activation: expression of Hh target genes Ptch and HIP in M2-10B4 cells; assay type: cell-based
Method: The expression of Ptch gene in M2-10B4 cells in vitro 4 days after initial contact with each oxysterol at a concentration of 1 μM is shown in FIG. 8. The expression of HIP gene in M2-10B4 cells in vitro 4 days after initial contact with each oxysterol at a concentration of 1 μM is shown in FIG. 9.

[4] = oxysterol + cyclopamine (Cyc; 5 μM)

## C[C@]12CC[C@@H]3c4ccc(O)cc4CC[C@H]3[C@@H]1CC[C@@H]2O [17β-estradiol, reference compound]
[1]
  % Binding to Hydroxyapatite: −1.95%
  binding to HAP (in words): no binding to HAP

## CCCCCC[C@](C)(O)[C@H]1CC[C@H]2[C@@H]3C[C@H](O)[C@H]4C[C@@H](O)CC[C@]4(C)[C@H]3CC[C@@]21C [Oxy133, reference compound]
C3H10T1/2 cells
  alkaline phosphatase activity: 390±10
[2]; oxysterol 1 μM
  ALP Activity: 714 ± 5 units/mg protein
[2]; [4]
  ALP Activity: 31 ± 7 units/mg protein
[3]
  half-life: < 5 min

## CCCCCCC(C)(O)C1CCC2C3CC(OC(=O)C(N)CC(=O)NCCOCCOCC(=O)Nc4ccc(OC)c(C(N)=O)c4O)C4CC(O)CCC4(C)C3CCC21C (stereo not shown) [Oxy154]
[2]
  osteogenic differentiation (ALP activity, ALP, BSP, OSX gene expression): induce osteogenic differentiation
  EC50: 630 nM
[2]; oxysterol 1 μM
  ALP Activity: 390 ± 68 units/mg protein
[2]; [4]
  ALP Activity: 18 ± 2 units/mg protein
[1]
  binding to HAP (in words): can bind hydroxyapatite (HAP)
Hedgehog (Hh) signaling
  activation of Hedgehog (Hh) signaling by induced expression of Ptch and HIP: activate Hedgehog (Hh) signaling

## CCCCCCC(C)(O)C1CCC2C3CC(OC(=O)C(N)CC(=O)NCCOCCOCC(=O)Nc4ccc(OC)c(C(N)=O)c4O)C4CC(OC(=O)C(N)CC(=O)NCCOCCOCC(=O)Nc5ccc(OC)c(C(N)=O)c5O)CCC4(C)C3CCC21C (stereo not shown) [Oxy155]
[2]
  osteogenic differentiation (ALP activity, ALP, BSP, OSX gene expression): induce osteogenic differentiation
  EC50: 330 nM
[2]; oxysterol 1 μM
  ALP Activity: 582 ± 8 units/mg protein
[2]; [4]
  ALP Activity: 39 ± 2 units/mg protein
[1]
  % Binding to Hydroxyapatite: 76.68%
  binding to HAP (in words): can bind hydroxyapatite (HAP)
Hedgehog (Hh) signaling
  activation of Hedgehog (Hh) signaling by induced expression of Ptch and HIP: activate Hedgehog (Hh) signaling
